According to ChEMBL document CHEMBL4706576, “Tricyclic heterocycles display diverse sensitivity to the A147T TSPO polymorphism” (Eur J Med Chem, 2020):

Columns and labels:
Homo sapiens = species on record: Homo sapiens; test: Selectivity index, ratio of Ki for TSPO A147T mutant (unknown origin) to Ki for wild type TSPO (unknown origin)
Translocator protein = Translocator protein (Homo sapiens, UniProt P30536); test: Displacement of [3H]-PK11195 from wild type TSPO (unknown origin) expressed in human HEK293T cells assessed as inhibitory constant incubated for 90 mins by microbeta scintillation counting method; format: cell-based
Chain of Translocator protein (P30536 whole entry): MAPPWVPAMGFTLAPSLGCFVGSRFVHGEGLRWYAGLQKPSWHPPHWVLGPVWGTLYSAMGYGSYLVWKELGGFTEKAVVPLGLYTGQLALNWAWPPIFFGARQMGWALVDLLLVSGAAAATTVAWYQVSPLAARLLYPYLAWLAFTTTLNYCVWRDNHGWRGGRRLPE

Ratio Ki (Homo sapiens) | Ki (Translocator protein) | Structure (SMILES)
2.5 |  | CN(Cc1ccccc1)C(=O)Cn1c2ccccc2c2ccccc21
4.8 | 41.3 nM | CN(Cc1ccccc1)C(=O)CN1Cc2cnn(C)c2Nc2ccccc21
13 | 6.2 nM | CCN(Cc1ccccc1)C(=O)Cc1c(-c2ccc(OC)cc2)nn2c(C)cc(C)nc12
2.9 | 9.3 nM | COc1ccc(-c2nn3c(C)cc(C)nc3c2CC(=O)N(C)Cc2ccccc2)cc1
11.8 | 200 nM | CCN(CC)C(=O)CN1c2ccccc2NC(=O)c2ccccc21
1.7 | 338 nM | COc1ccc(-c2nn3c(C)cc(C)nc3c2CC(=O)N(C)C)cc1
2.1 | 76.8 nM | CN(Cc1ccccc1)C(=O)CN1c2ccccc2NC(=O)c2ccccc21
 | > 10000 nM | CN(C)C(=O)CN1Cc2cnn(C)c2Nc2ccccc21
5.5 | 41.3 nM | CCN(Cc1ccccc1)C(=O)CN1Cc2cnn(C)c2Nc2ccccc21
4.6 | 493 nM | CCN(CC)C(=O)CN1Cc2cnn(C)c2Nc2ccccc21
5 |  | CCN(Cc1ccccc1)C(=O)Cn1c2ccccc2c2ccccc21
6.2 | 15.8 nM | CCN(Cc1ccccc1)C(=O)CN1c2ccccc2NC(=O)c2ccccc21
 | > 10000 nM | CN(C)C(=O)CN1c2ccccc2NC(=O)c2ccccc21

Structure (SMILES) | Ratio Ki (Homo sapiens) | Ki (Translocator protein)
CCN(CC)C(=O)Cn1c2ccccc2c2ccccc21 | 5.9 | 
